# Patent US20240358861A1, “COMPOSITIONS AND METHODS OF FLUORESCEIN SODIUM FOR EARLY DIAGNOSIS OF CERVICAL CANCER” (THE MOEIN FAMILY TRUST, priority 2023, published 2024)
# What was measured:
# [1] = tested on: cervix (cervical lesions); assay: Colposcopy with AA then FNa staining, histopathology (biopsy) as reference diagnosis; format: in vivo, human; conditions: for Accuracy: correlation of staining with biopsy report; for Sensitivity / Specificity: diagnosis of high grade SIL or worse per histopathology; for Number of patients, stain negative, Total / Number of patients, stain positive, Total: all biopsies
# Method: The FNa formulation is applied in 3 steps, each using either a cotton swab or plastic pipette for delivery and continuing until all solution is dispensed: a) Pre-rinse with 10 mL of normal saline to remove cervical mucus. b) Apply 10 mL of a FNa delivery solution over the cervix. Solution in the posterior cul-de-sac is picked up with the pipette and resprayed, at least once, then discarded. c) after imaging or diagnosis, post-rinse with 10 mL of normal saline.
# cervix = assay: Staining properties of FNa versus AA when tested; parameters: species or system human; conditions: in vivo
# Description: In some embodiments, FNa staining may be observed with an unaided eye. Using FNa as a staining agent enables use in low resource settings where access to a colposcope is not possible.
# cervical lesions (CIN) = assay: Lesion grade stained, shown by p16, Ki67 and c-myc FISH staining of specimens; parameters: species or system human
smiles,measurement,setting,value
"O=C1OC2(c3ccc(O)cc3Oc3cc(O)ccc32)c2ccccc21 [FNa, Fluorescein (3′,6′-dihydrospiro[isobenzofuran-1(3H),9′-[9H]xanthene]-3-one) sodium]",Number of patients,"[1]; No pap smear (n = 5), stain Negative, Benign biopsy n = 6",0
same,Number of patients,"[1]; No pap smear (n = 5), stain Negative, High grade biopsy (n = 26)",0
same,Number of patients,"[1]; No pap smear (n = 5), stain Negative, Invasive (n = 5)",0
same,Number of patients,"[1]; No pap smear (n = 5), stain Negative, Low grade Biopsy (n = 41)",1
same,Number of patients,"[1]; No pap smear (n = 5), stain Negative, all",1
same,Number of patients,"[1]; No pap smear (n = 5), stain Positive, Benign biopsy n = 6",0
same,Number of patients,"[1]; No pap smear (n = 5), stain Positive, High grade biopsy (n = 26)",1
same,Number of patients,"[1]; No pap smear (n = 5), stain Positive, Invasive (n = 5)",0
same,Number of patients,"[1]; No pap smear (n = 5), stain Positive, Low grade Biopsy (n = 41)",3
same,Number of patients,"[1]; No pap smear (n = 5), stain Positive, all",4
same,Number of patients,"[1]; Pap smear High grade (n = 22), stain Negative, Benign biopsy n = 6",2
same,Number of patients,"[1]; Pap smear High grade (n = 22), stain Negative, High grade biopsy (n = 26)",0
same,Number of patients,"[1]; Pap smear High grade (n = 22), stain Negative, Invasive (n = 5)",0
same,Number of patients,"[1]; Pap smear High grade (n = 22), stain Negative, Low grade Biopsy (n = 41)",0
same,Number of patients,"[1]; Pap smear High grade (n = 22), stain Negative, all",2
same,Number of patients,"[1]; Pap smear High grade (n = 22), stain Positive, Benign biopsy n = 6",0
same,Number of patients,"[1]; Pap smear High grade (n = 22), stain Positive, High grade biopsy (n = 26)",12
same,Number of patients,"[1]; Pap smear High grade (n = 22), stain Positive, Invasive (n = 5)",3
same,Number of patients,"[1]; Pap smear High grade (n = 22), stain Positive, Low grade Biopsy (n = 41)",5
same,Number of patients,"[1]; Pap smear High grade (n = 22), stain Positive, all",20
same,Number of patients,"[1]; Pap smear Invasive (n = 5), stain Negative, Benign biopsy n = 6",0
same,Number of patients,"[1]; Pap smear Invasive (n = 5), stain Negative, High grade biopsy (n = 26)",0
same,Number of patients,"[1]; Pap smear Invasive (n = 5), stain Negative, Invasive (n = 5)",0
same,Number of patients,"[1]; Pap smear Invasive (n = 5), stain Negative, Low grade Biopsy (n = 41)",0
same,Number of patients,"[1]; Pap smear Invasive (n = 5), stain Negative, all",0
same,Number of patients,"[1]; Pap smear Invasive (n = 5), stain Positive, Benign biopsy n = 6",0
same,Number of patients,"[1]; Pap smear Invasive (n = 5), stain Positive, High grade biopsy (n = 26)",4
same,Number of patients,"[1]; Pap smear Invasive (n = 5), stain Positive, Invasive (n = 5)",1
same,Number of patients,"[1]; Pap smear Invasive (n = 5), stain Positive, Low grade Biopsy (n = 41)",0
same,Number of patients,"[1]; Pap smear Invasive (n = 5), stain Positive, all",5
same,Number of patients,"[1]; Pap smear Low grade (n = 46), stain Negative, Benign biopsy n = 6",4
same,Number of patients,"[1]; Pap smear Low grade (n = 46), stain Negative, High grade biopsy (n = 26)",0
same,Number of patients,"[1]; Pap smear Low grade (n = 46), stain Negative, Invasive (n = 5)",0
same,Number of patients,"[1]; Pap smear Low grade (n = 46), stain Negative, Low grade Biopsy (n = 41)",3
same,Number of patients,"[1]; Pap smear Low grade (n = 46), stain Negative, all",7
same,Number of patients,"[1]; Pap smear Low grade (n = 46), stain Positive, Benign biopsy n = 6",0
same,Number of patients,"[1]; Pap smear Low grade (n = 46), stain Positive, High grade biopsy (n = 26)",9
same,Number of patients,"[1]; Pap smear Low grade (n = 46), stain Positive, Invasive (n = 5)",1
same,Number of patients,"[1]; Pap smear Low grade (n = 46), stain Positive, Low grade Biopsy (n = 41)",29
same,Number of patients,"[1]; Pap smear Low grade (n = 46), stain Positive, all",39
same,Accuracy,[1],Accuracy = 94%
same,Sensitivity,[1],94%
same,Specificity,[1],86%
same,"Number of patients, stain negative, Total",[1],10
same,"Number of patients, stain negative, biopsy Ca, HG, LG",[1],4
same,"Number of patients, stain positive, Total",[1],68
same,"Number of patients, stain positive, biopsy Ca, HG, LG",[1],67
same,Burning sensation,cervix,did not cause the same burning sensation
"CC(=O)O [AA, acetic acid]",More false positives than the other stain,"[1]; AA versus FNa, patients with low grade SIL per histopathology",three
same,Number of patients Acetic acid positive,[1]; No pap smear (n = 5),5
same,Number of patients Acetic acid positive,[1]; Pap smear High grade (n = 22),20
same,Number of patients Acetic acid positive,[1]; Pap smear Invasive (n = 5),5
same,Number of patients Acetic acid positive,[1]; Pap smear Low grade (n = 46),44
same,Accuracy,[1],Accuracy = 94%
same,Sensitivity,[1],94%
same,Specificity,[1],43%
same,Missed high grade lesions,[1]; in vivo,Neither AA nor FNa missed any high grade lesions
same,"Number of patients, stain negative, Total",[1],4
same,"Number of patients, stain negative, biopsy Ca, HG, LG",[1],1
same,"Number of patients, stain positive, Total",[1],74
same,"Number of patients, stain positive, biopsy Ca, HG, LG",[1],70
same,Burning sensation,cervix,burning sensation that AA causes
same,Lesion grades stained,cervical lesions (CIN),stains any lesion from CIN 1 and worse
